Assay [1] concerns the target T1, human PDE9A2 (Homo sapiens, UniProt O76083).
T1 construct: made in house; host or cells: Sf9 insect cells (infected); crude lysate used as enzyme source
Briefly: PDE9A2 enzymatic activity assay (scintillation proximity assay, SPA). The conditions noted are these: for inhibition at 10 µM: read-out: % inhibition of PDE9A2 (at 10 micromolar concentration), 10 micromolar concentration, values above 100% adjusted to 100%; for IC50: reported only as range 1-100 or 101-1200 nanomolar, specific value lies within range, read-out: IC50 within range [nanomolar (nM)]. The class given is biochemical.

Assay [2] addresses human PDE9A (Homo sapiens, UniProt O76083). The conditions noted are these: concentrations of up to 100 micromolar; cited from earlier work.
The target of assay [3] is T2, Murine PDE9A (Mus musculus, UniProt O70628).
T2 sequence (O70628 1-534): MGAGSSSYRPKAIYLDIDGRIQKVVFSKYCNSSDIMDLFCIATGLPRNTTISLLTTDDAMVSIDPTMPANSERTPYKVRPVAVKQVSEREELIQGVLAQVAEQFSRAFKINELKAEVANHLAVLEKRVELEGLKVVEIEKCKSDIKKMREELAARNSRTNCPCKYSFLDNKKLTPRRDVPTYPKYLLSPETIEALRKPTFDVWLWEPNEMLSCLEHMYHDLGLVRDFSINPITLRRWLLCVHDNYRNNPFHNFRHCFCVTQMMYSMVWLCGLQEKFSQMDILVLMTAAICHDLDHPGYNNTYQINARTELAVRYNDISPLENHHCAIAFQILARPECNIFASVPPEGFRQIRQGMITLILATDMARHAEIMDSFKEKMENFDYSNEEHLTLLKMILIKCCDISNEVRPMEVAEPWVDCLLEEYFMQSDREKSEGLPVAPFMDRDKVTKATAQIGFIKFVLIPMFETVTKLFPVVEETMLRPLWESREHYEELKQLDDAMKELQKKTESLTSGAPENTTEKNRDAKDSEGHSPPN
The conditions noted are these: concentrations below 200 micromolar; cited from earlier work.

Sequence of human PDE9A (O76083 whole entry): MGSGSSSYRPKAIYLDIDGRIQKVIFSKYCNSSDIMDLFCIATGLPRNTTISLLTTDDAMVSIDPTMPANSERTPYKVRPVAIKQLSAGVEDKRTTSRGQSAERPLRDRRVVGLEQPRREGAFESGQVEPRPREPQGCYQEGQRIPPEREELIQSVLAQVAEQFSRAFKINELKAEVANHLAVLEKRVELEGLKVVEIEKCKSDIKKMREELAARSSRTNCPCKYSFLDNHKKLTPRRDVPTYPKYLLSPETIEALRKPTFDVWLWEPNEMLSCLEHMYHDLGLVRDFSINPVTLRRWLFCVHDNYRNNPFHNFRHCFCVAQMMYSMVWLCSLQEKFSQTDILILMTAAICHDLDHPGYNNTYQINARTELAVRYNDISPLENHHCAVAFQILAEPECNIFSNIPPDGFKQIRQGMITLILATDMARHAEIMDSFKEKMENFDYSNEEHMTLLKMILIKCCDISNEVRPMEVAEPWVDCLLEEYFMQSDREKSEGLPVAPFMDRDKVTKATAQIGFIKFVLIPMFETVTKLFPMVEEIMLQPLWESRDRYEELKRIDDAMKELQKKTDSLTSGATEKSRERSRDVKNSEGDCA
T1 sequence (O76083 1-533 isoform O76083-2): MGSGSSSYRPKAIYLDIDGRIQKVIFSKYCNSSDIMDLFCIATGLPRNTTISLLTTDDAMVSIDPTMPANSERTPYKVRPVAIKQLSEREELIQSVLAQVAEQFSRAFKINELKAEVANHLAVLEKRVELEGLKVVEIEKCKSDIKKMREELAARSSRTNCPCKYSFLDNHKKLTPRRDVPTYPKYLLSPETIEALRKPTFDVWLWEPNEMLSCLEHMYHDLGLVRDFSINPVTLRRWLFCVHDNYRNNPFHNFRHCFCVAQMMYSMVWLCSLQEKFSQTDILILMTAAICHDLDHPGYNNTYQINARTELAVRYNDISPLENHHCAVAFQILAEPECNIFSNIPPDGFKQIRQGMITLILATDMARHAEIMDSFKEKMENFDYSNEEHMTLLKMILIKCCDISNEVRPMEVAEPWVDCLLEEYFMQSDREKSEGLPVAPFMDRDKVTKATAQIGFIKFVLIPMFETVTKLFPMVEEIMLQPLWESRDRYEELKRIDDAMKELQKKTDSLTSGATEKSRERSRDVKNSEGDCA

Usually IC50 stands for the concentration at which inhibition is half-maximal. On to `O=c1[nH]c(Cc2cccc(F)c2)nc2c1cnn2C1CCOCC1` [Example 139], for which, in assay [1], the inhibition at 10 µM is 99% and the 50% inhibitory concentration (IC50) was in the range of 1 to 100 nM.

On to `O=c1[nH]c(Cc2ccc(F)cc2)nc2c1cnn2C1CCOCC1` [Example 140], for which, in assay [1], the inhibition at 10 µM was 100% and the IC50 is 1 to 100 nM.

Regarding `CC(C)Cc1nc2c(cnn2C2CCOCC2)c(=O)[nH]1` [Example 143], in assay [1], the inhibition at 10 µM was found to be 100% and the IC50 is 1 to 100 nM.

Consider `O=c1[nH]c(CC2CCCCC2)nc2c1cnn2C1CCOCC1` [Example 144], for which, in assay [1], the inhibition at 10 µM is 100% and the IC50 was in the range of 1 to 100 nM.

With `CN1CCC(n2ncc3c(=O)[nH]c(Cc4ccccc4)nc32)CC1` [Example 148], in assay [1], the inhibition at 10 µM worked out at 86% and the concentration for half-maximal inhibition (IC50) is 101 to 1200 nM.

In the case of `CN1CCC(n2ncc3c(=O)[nH]c(CC4CCCC4)nc32)CC1` [Example 149], in assay [1], the inhibition at 10 µM was determined as 95% and the 50% inhibitory concentration (IC50) was 101 to 1200 nM.

For `CN1CCC(n2ncc3c(=O)[nH]c(Cc4ccccc4OC(F)(F)F)nc32)CC1` [Example 150], in assay [1], the inhibition at 10 µM was found to be 90% and the IC50 was in the range of 101 to 1200 nM.

`CC(=O)N1CCC(n2ncc3c(=O)[nH]c(CC4CCCC4)nc32)CC1` [Example 151]: in assay [1], the inhibition at 10 µM worked out at 92% and the IC50 fell in the range of 101 to 1200 nM.

As for `CC(=O)N1CCC(n2ncc3c(=O)[nH]c(Cc4ccccc4)nc32)CC1` [Example 152], in assay [1], the inhibition at 10 µM came out at 93% and the concentration for half-maximal inhibition (IC50) is 101 to 1200 nM.

As for `CC(=O)N1CCC(n2ncc3c(=O)[nH]c(Cc4ccccc4OC(F)(F)F)nc32)CC1` [Example 153], in assay [1], the inhibition at 10 µM is 90% and the 50% inhibitory concentration (IC50) lay in the range of 101 to 1200 nM.

Take `O=c1[nH]c(CC2CCCC2)nc2c1cnn2C1CCNCC1` [Example 195]: in assay [1], the inhibition at 10 µM stood at 88% and the IC50 lay within 101 to 1200 nM.

Turning to `O=c1[nH]c(Cc2ccccc2)nc2c1cnn2C1CCNCC1` [Example 202], in assay [1], the inhibition at 10 µM is 83% and the IC50 is 101 to 1200 nM.

In the case of `O=c1[nH]c(Cc2ccccc2OC(F)(F)F)nc2c1cnn2C1CCNCC1` [Example 203], in assay [1], the inhibition at 10 µM stood at 84% and the IC50 was 101 to 1200 nM.

On to `C=Cc1cc(OC)ccc1Cc1nc2c(cnn2C2CCOCC2)c(=O)[nH]1` [Example 230-4], for which, in assay [1], the inhibition at 10 µM came to 98% and the 50% inhibitory concentration (IC50) lay within 101 to 1200 nM.

On to `O=C1CC(n2ncc3c(=O)[nH]c(CC4CCCC4)nc32)CCO1` (stereo not drawn) [Example 233], for which, in assay [1], the inhibition at 10 µM is 100% and the IC50 is 1 to 100 nM.

For `CCc1cc(OC)ccc1Cc1nc2c(cnn2C2CCOCC2)c(=O)[nH]1` [Example 235], in assay [1], the inhibition at 10 µM was 98% and the 50% inhibitory concentration (IC50) is 101 to 1200 nM.

For `O=c1[nH]c(CC2CC2)nc2c1cnn2C1CC[S+]([O-])CC1` (stereo not drawn) [Example 236], in assay [1], the inhibition at 10 µM is 93% and the half-maximal inhibitory concentration (IC50) was in the range of 101 to 1200 nM.

Regarding `O=c1[nH]c(CC2CC2)nc2c1cnn2C1CCS(=O)(=O)CC1` [Example 237], in assay [1], the inhibition at 10 µM was 89% and the half-maximal inhibitory concentration (IC50) fell in the range of 101 to 1200 nM.

In the case of `CC(C)Cn1c(=O)n(C)c(=O)c2[nH]cnc21` [IBMX], the “inhibition on the isolated enzyme” value in assay [2] is on record as “no inhibition”. Besides, the “inhibition of murine PDE9A” value in assay [3] is “not inhibited”.

`CC(=O)Nc1ccc(-c2c[nH]c(=O)cn2)cc1` [SKF94120]: in assay [2], the “inhibition on the isolated enzyme” value is given as “no inhibition”.

In the case of `OCCN(CCO)c1nc(N2CCCCC2)c2nc(N(CCO)CCO)nc(N3CCCCC3)c2n1` [dipyridamole], the “inhibition on the isolated enzyme” value in assay [2] is “no inhibition”.

Turning to `COc1ccc(C2CNC(=O)C2)cc1OC1CCCC1` (stereo not drawn) [rolipram], the “inhibition on the isolated enzyme” value in assay [2] is given as “no inhibition”.

For `CCOC(=O)C1=C[C@]2(CC)CCCN3CCc4c(n1c1ccccc41)[C@@H]32` [vinpocetine], the “inhibition on the isolated enzyme” value in assay [2] is reported as “no inhibition”.

(Values after patent US8623879B2, “1-heterocyclyl-1,5-dihydro-pyrazolo[3,4-D] pyrimidin-4-one derivates and their use as PDE9A modulators” (Boehringer Ingelheim International GmbH, priority 2008, dated 2014).)
